What was measured:
[1] = tested on: microchannels in skin made by a microneedle device; experiment: In vivo transepidermal water loss (TEWL) after microneedle pretreatment; details: swine; DPG formulated with saturated compound, applied after microneedle pretreatment; FIG. 4
Description: Transepidermal water loss (TEWL) was assessed in vivo in swine as an indicator of skin integrity before and after microneedle pretreatment, using dipropylene glycol (DPG) formulated with saturated (i) cholesterol, (ii) curcumin, (iii) glycyrrhizin, (iv) diclofenac, or (v) no anti-healing compound. The diclofenac formulation was used as a positive control, and the formulation with no anti-healing compound was used as a negative control. Microneedle devices were inserted into swine skin with an applicator and removed, followed by application of the formulations. TEWL was measured before and after microneedle pretreatment, and during application of the formulations (formulations were removed and reapplied at every time point).
FIG. 4 illustrates the in vivo transepidermal water loss measured before and after microneedle pretreatment for the five formulations.

[2] = tested on: microchannels in skin made by a microneedle device; experiment: In vivo impedance after microneedle pretreatment; details: swine; DPG formulated with saturated compound, applied after microneedle pretreatment; FIG. 5
Description: Impedance (Z) was assessed in vivo in swine as a measure of skin integrity using the compositions described above. Microneedle devices were inserted into swine with an applicator and removed, followed by application of the formulations. Impedance was measured before and after microneedle pretreatment, and during application of the formulations (formulations were removed and reapplied at every time point).
FIG. 5 illustrates the in vivo impedance measured before and after microneedle pretreatment for the five formulations.

[3] = tested on: microchannels; details: reported in the literature; cited from earlier work

Compound	transepidermal water loss (TEWL), sustained level [1]	impedance (Z) [2]	lifetime of microchannels [3]
COc1cc(/C=C/C(=O)CC(=O)/C=C/c2ccc(O)c(OC)c2)ccc1O [curcumin]	higher sustained levels of TEWL than the formulation with no anti-healing compound	low impedance throughout the study	
CC1(C)[C@@H](O[C@H]2O[C@H](C(=O)O)[C@@H](O)[C@H](O)[C@H]2O[C@@H]2O[C@H](C(=O)O)[C@@H](O)[C@H](O)[C@H]2O)CC[C@]2(C)[C@H]3C(=O)C=C4[C@@H]5C[C@@](C)(C(=O)O)CC[C@]5(C)CC[C@@]4(C)[C@]3(C)CC[C@@H]12 [glycyrrhizin]	higher sustained levels of TEWL than the formulation with no anti-healing compound	low impedance throughout the study	
O=C(O)Cc1ccccc1Nc1c(Cl)cccc1Cl [diclofenac, reference compound]	highest sustained level of TEWL	low impedance throughout the study	extend the lifetime of microchannels
CC(C)CCC[C@@H](C)[C@H]1CC[C@H]2[C@@H]3CC=C4C[C@@H](O)CC[C@]4(C)[C@H]3CC[C@]12C [cholesterol]	higher sustained levels of TEWL than the formulation with no anti-healing compound	low impedance throughout the study	
